Assay results from article PMC7381729, “A new class of PentixaFor- and PentixaTher-based theranostic agents with enhanced CXCR4-targeting efficiency” (Theranostics, 2020).
Like-named read-outs stand apart in the source and are kept apart here. Where a SMILES comes first, the peptide text is derived from it. Side-chain parts run from the residue outwards. [ ]: non-standard residue; d: D form. The star is where a group is joined. DOTA = O=C(O)CN1CCN(CC(=O)O)CCN(CC(=O)*)CCN(CC(=O)O)CC1; 2Nal = N[C@@H](Cc1ccc2ccccc2c1)C(=O)O; dNMeOrn = CN[C@H](CCCN)C(=O)O; 4Abz = Nc1ccc(C(=O)O)cc1

Experiment: Biodistribution in Daudi xenograft bearing mice
Format: in vivo, mouse
Details: female, CB-17 SCID, mouse, iv, total radioactivity; for tissue uptake at 6 h: 6h p.i.; for tissue uptake at 6 h / tissue uptake at 48 h: i.v., n=4-5; for tissue uptake at 6 h / tissue uptake at 48 h / tissue to tissue ratio at 48 h: means ± SD; for tissue uptake at 48 h / tissue to tissue ratio at 48 h: 48h p.i.; for tissue uptake at 1 h: 1h p.i., coinjection of 50 µg AMD3100/animal, n=1; for tissue to tissue ratio at 48 h: n=4-5 animals
Method in brief: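 Female CB-17 SCID mice with Daudi xenografts (n=4-5) received 5-10 MBq (0.08-0.11 nmol) ^68Ga- or ^177Lu-labelled ligand i.v.; blocking by coinjected 50 µg AMD3100. Organs counted by γ-counter at 1, 6 and 48 h p.i.; %ID/g (mean ± SD).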

[1] = adrenals, read-out: Biodistribution adrenals
[2] = blood, read-out: Biodistribution blood
[3] = colon, read-out: Biodistribution colon
[4] = femur, read-out: Biodistribution femur
[5] = heart, read-out: Biodistribution heart
[6] = kidney, read-out: Biodistribution kidney
[7] = liver, read-out: Biodistribution liver
[8] = lung, read-out: Biodistribution lung
[9] = muscle, read-out: Biodistribution muscle
[10] = pancreas, read-out: Biodistribution pancreas
[11] = small intestine, read-out: Biodistribution small intestine
[12] = spleen, read-out: Biodistribution spleen
[13] = stomach, read-out: Biodistribution stomach
[14] = tumor (Daudi xenograft), read-out: Biodistribution tumor (Daudi xenograft)

tissue uptake at 6 h [1]: 0.51 ± 0.12 %ID/g | tissue uptake at 48 h [1]: 0.33 ± 0.08 %ID/g | tissue uptake at 1 h (adrenals, with AMD3100, 50 µg per animal, coinjected (CXCR4 competition), read-out: Biodistribution adrenals, + AMD3100): 1.22 %ID/g | tissue uptake at 6 h [2]: 0.05 ± 0.01 %ID/g | tissue uptake at 48 h [2]: 0.01 %ID/g | tissue uptake at 1 h (blood, with AMD3100, 50 µg per animal, coinjected (CXCR4 competition), read-out: Biodistribution blood, + AMD3100): 1.9 %ID/g | tissue uptake at 6 h [3]: 0.65 ± 0.3 %ID/g | tissue uptake at 48 h [3]: 0.44 ± 0.22 %ID/g | tissue uptake at 1 h (colon, with AMD3100, 50 µg per animal, coinjected (CXCR4 competition), read-out: Biodistribution colon, + AMD3100): 0.74 %ID/g | tissue uptake at 6 h [4]: 0.3 ± 0.05 %ID/g | tissue uptake at 48 h [4]: 0.29 ± 0.05 %ID/g | tissue uptake at 1 h (femur, with AMD3100, 50 µg per animal, coinjected (CXCR4 competition), read-out: Biodistribution femur, + AMD3100): 0.74 %ID/g | tissue uptake at 1 h (heart, read-out: Biodistribution heart, + AMD3100): 1.07 %ID/g | tissue uptake at 6 h [5]: 0.13 ± 0.02 %ID/g | tissue uptake at 48 h [5]: 0.08 ± 0.01 %ID/g | tissue uptake at 6 h [6]: 7.1 ± 2.06 %ID/g | tissue uptake at 48 h [6]: 3.05 ± 0.15 %ID/g | tissue uptake at 1 h (kidney, with AMD3100, 50 µg per animal, coinjected (CXCR4 competition), read-out: Biodistribution kidney, + AMD3100): 10.3 %ID/g | tissue uptake at 1 h (liver, read-out: Biodistribution liver, + AMD3100): 5.46 %ID/g | tissue uptake at 6 h [7]: 11.3 ± 2.83 %ID/g | tissue uptake at 48 h [7]: 8.99 ± 1.62 %ID/g | tissue uptake at 1 h (lung, read-out: Biodistribution lung, + AMD3100): 3.34 %ID/g | tissue uptake at 6 h [8]: 0.27 ± 0.06 %ID/g | tissue uptake at 48 h [8]: 0.19 ± 0.08 %ID/g | tissue uptake at 6 h [9]: 0.04 ± 0.01 %ID/g | tissue uptake at 48 h [9]: 0.02 %ID/g | tissue uptake at 1 h (muscle, with AMD3100, 50 µg per animal, coinjected (CXCR4 competition), read-out: Biodistribution muscle, + AMD3100): 0.38 %ID/g | tissue uptake at 6 h [10]: 0.08 ± 0.02 %ID/g | tissue uptake at 48 h [10]: 0.07 ± 0.01 %ID/g | tissue uptake at 1 h (pancreas, with AMD3100, 50 µg per animal, coinjected (CXCR4 competition), read-out: Biodistribution pancreas, + AMD3100): 0.61 %ID/g | tissue uptake at 6 h [11]: 0.3 ± 0.06 %ID/g | tissue uptake at 48 h [11]: 0.16 ± 0.11 %ID/g | tissue uptake at 1 h (small intestine, with AMD3100, 50 µg per animal, coinjected (CXCR4 competition), read-out: Biodistribution small intestine, + AMD3100): 1.36 %ID/g | tissue uptake at 6 h [12]: 1.41 ± 0.24 %ID/g | tissue uptake at 48 h [12]: 1.06 ± 0.33 %ID/g | tissue uptake at 1 h (spleen, with AMD3100, 50 µg per animal, coinjected (CXCR4 competition), read-out: Biodistribution spleen, + AMD3100): 1.11 %ID/g | tissue uptake at 6 h [13]: 0.25 ± 0.07 %ID/g | tissue uptake at 48 h [13]: 0.19 ± 0.13 %ID/g | tissue uptake at 1 h (stomach, with AMD3100, 50 µg per animal, coinjected (CXCR4 competition), read-out: Biodistribution stomach, + AMD3100): 2.46 %ID/g | tissue uptake at 6 h [14]: 13.6 ± 3.33 %ID/g | tissue uptake at 48 h [14]: 8.81 ± 0.99 %ID/g | tissue uptake at 1 h (tumor (Daudi xenograft), with AMD3100, 50 µg per animal, coinjected (CXCR4 competition), read-out: Biodistribution tumor, + AMD3100): 3.04 %ID/g | tissue to tissue ratio at 48 h (tumor / blood, read-out: Tumor/organ ratio t/blood): 949 ± 146 | tissue to tissue ratio at 48 h (tumor / colon, read-out: Tumor/organ ratio t/colon): 20 ± 10 | tissue to tissue ratio at 48 h (tumor / heart, read-out: Tumor/organ ratio t/heart): 111 ± 20 | tissue to tissue ratio at 48 h (tumor / kidney, read-out: Tumor/organ ratio t/kidney): 2.9 ± 0.4 | tissue to tissue ratio at 48 h (tumor / liver, read-out: Tumor/organ ratio t/liver): 1 ± 0.2 | tissue to tissue ratio at 48 h (tumor / lung, read-out: Tumor/organ ratio t/lung): 47 ± 22 | tissue to tissue ratio at 48 h (tumor / muscle, read-out: Tumor/organ ratio t/muscle): 413 ± 100 | tissue to tissue ratio at 48 h (tumor / small intestine, read-out: Tumor/organ ratio t/small intestine): 55 ± 36 | tissue to tissue ratio at 48 h (tumor / spleen, read-out: Tumor/organ ratio t/spleen): 8.3 ± 2.8 | tissue to tissue ratio at 48 h (tumor / stomach, read-out: Tumor/organ ratio t/stomach): 46 ± 32
Compound: C[C@@H](NC(=O)[C@@H](CCCNC(=N)N)NC(=O)CN1CCN(CC(=O)O)CCN(CC(=O)O)CCN(CC(=O)O)CC1)C(=O)Nc1ccc(C(=O)NCCC[C@@H]2C(=O)N[C@@H](CCCNC(=N)N)C(=O)N[C@@H](Cc3ccc4ccccc4c3)C(=O)NCC(=O)N[C@H](Cc3ccc(O)cc3)C(=O)N2C)cc1 [[^177Lu]DOTA-r-a-ABA-CPCR4, metal not drawn] (cyclo([2Nal]G[dY][dNMeOrn]([4Abz-dA-dR-DOTA])R))
